Series [1] relates to scopolamine-induced hyperactivity. In words: Reversal of scopolamine-induced hyperactivity in mice (swim tank). It counts as in vivo, Male CFW mice. Particulars: Mus musculus, ip, 5 min, 0.3 mg/kg scopolamine.HBr, i.p., mean swimming distance, read-out: minimum effective dose (MED), reversal of scopolamine hyperactivity. The method, then: The compound of Example 1 was also tested in accordance with the procedure of Symons et al, Soc. Neuroscience Abstracts 12:2, 897 (1986) in which Male CFW mice, 25 to 35 grams in weight are given the test compound in suitable vehicle plus 0.3 mg/kg scopoolamine.HBr in suitable vehicle, i.p.(3 groups of 12 animals each) or vehicle alone (1 group of 12 animals ) or vehicle plus scopolamine. HBr (1 group of 12 animals). The rates are placed in a swim tank, individually, containing 10 cm H2 O for a period of 5 minutes and the distance each animal swims is recorded.

For series [2], the system named is memory in patients with mild to moderate Alzheimer's Disease. To be noted: cited from earlier work; for memory improvement in patients: mild to moderate Alzheimer's Disease.
The test system of series [3] is serotonin 5-HT1A receptor. Particulars: standard for anxiolytic activity; cited from earlier work.

As to `CN(C)CCOC(=O)c1csc(NC(=O)c2cc(C(C)(C)C)c(O)c(C(C)(C)C)c2)n1` [Example 1, 2-[[3,5,-Bis(1,1-dimethylethl)-4-hydroxybenzoyl]amino]-4-thiazolecarboxylicacid 2-(dimethylamino)ethyl ester], the minimal effective dose in series [1] worked out at 3 mg/kg.
As to `COC(=O)C1=CCCN(C)C1` [arecoline], in series [2], the “memory improvement in patients” value is reported as “memory improvement in patients with mild to moderate Alzheimer's Disease”.
For `O=C1CC2(CCCC2)CC(=O)N1CCCCN1CCN(c2ncccn2)CC1` [buspirone], the “affinity for the 5-HT1A serotonin receptor subtype (words, buspirone)” value in series [3] is on record as “potent affinity”.
Consider `Nc1c2c(nc3ccccc13)CCCC2` [tacrine], for which the “side effects” value in series [2] (especially at the higher doses) is listed as “adverse side effects especially at the higher doses”. Moreover, the “memory improvement in patients” value in series [2] is “improvement in memory can be shown in patients with mild to moderate Alzheimer's Disease”.

(Values after patent US5712270A, “2-arylamidothiazole derivatives with CNS activity” (American Home Products Corporation, priority 1996, dated 1998).)
